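Five compound concentrations were applied to cells in 96-well plates for 48 hours; endpoints were derived by simple linear interpolation of the resulting dose-response curve. The concentration for 50% growth inhibition is given as GI50.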 The source made the active and inactive calls. Cut-off read from the data, not from the text of the source: active = GI50 up to about 1.1 µM and inactive = higher.
What was measured:
Assay in all cases: growth of human tumour cells (NCI), 48 h
UO-31 = tested on: UO-31
PC-3 = tested on: PC-3
ACHN = tested on: ACHN
Hs-578T = tested on: Hs-578T
HOP-62 = tested on: HOP-62
OVCAR-5 = tested on: OVCAR-5
NCI-H460 = tested on: NCI-H460
COLO 205 = tested on: COLO 205
NCI-H226 = tested on: NCI-H226
HCC 2998 = tested on: HCC 2998
UACC-62 = tested on: UACC-62
CCRF-CEM = tested on: CCRF-CEM
T47D = tested on: T47D
RPMI-8226 = tested on: RPMI-8226
NCI-H23 = tested on: NCI-H23
HT-29 = tested on: HT-29
SN12C = tested on: SN12C
SF-268 = tested on: SF-268
DU-145 = tested on: DU-145
SNB-75 = tested on: SNB-75
MDA-MB-435 = tested on: MDA-MB-435
OVCAR-8 = tested on: OVCAR-8
BT-549 = tested on: BT-549
SR = tested on: SR
HCT-15 = tested on: HCT-15
TK-10 = tested on: TK-10
RXF 393 = tested on: RXF 393
HOP-92 = tested on: HOP-92
MCF7 = tested on: MCF7
A498 = tested on: A498
M14 = tested on: M14
SK-MEL-2 = tested on: SK-MEL-2
K562 = tested on: K562
KM12 = tested on: KM12
LOX IMVI = tested on: LOX IMVI
IGROV-1 = tested on: IGROV-1
NCI-H522 = tested on: NCI-H522
SW-620 = tested on: SW-620
786-0 = tested on: 786-0
EKVX = tested on: EKVX
MDA-N = tested on: MDA-N
SF-295 = tested on: SF-295
A549 = tested on: A549
CAKI-1 = tested on: CAKI-1
SK-OV-3 = tested on: SK-OV-3
Malme-3M = tested on: Malme-3M
OVCAR-3 = tested on: OVCAR-3
U-251 = tested on: U-251
HCT-116 = tested on: HCT-116
MOLT-4 = tested on: MOLT-4
SK-MEL-5 = tested on: SK-MEL-5
MDA-MB-231 = tested on: MDA-MB-231
SK-MEL-28 = tested on: SK-MEL-28
UACC-257 = tested on: UACC-257
SF-539 = tested on: SF-539
SNB-19 = tested on: SNB-19
HL-60 = tested on: HL-60

Measured: GI50

COc1ccc(NC2Oc3cc4c(cc3C(c3cccc(OC)c3OC)C2C)OCO4)cc1 (configuration not stated)
inactive: UO-31 5.85 µM | PC-3 3.62 µM | ACHN 4.59 µM | Hs-578T 7.96 µM | HOP-62 32.9 µM | OVCAR-5 19.2 µM | NCI-H460 5.86 µM | COLO 205 6.14 µM | NCI-H226 6.82 µM | HCC 2998 43.5 µM | UACC-62 14.9 µM | CCRF-CEM 3.61 µM | T47D 5.08 µM | RPMI-8226 11.4 µM | NCI-H23 11.9 µM | HT-29 6.85 µM | SN12C 6.19 µM | SF-268 10.1 µM | DU-145 4.16 µM | SNB-75 5.06 µM | MDA-MB-435 10 µM | OVCAR-8 5.13 µM | BT-549 13.5 µM | SR 2.04 µM | TK-10 6.4 µM | RXF 393 3.72 µM | HOP-92 3.32 µM | MCF7 8.81 µM | A498 10.9 µM | M14 6.04 µM | SK-MEL-2 5.3 µM | K562 4.21 µM | KM12 6.68 µM | LOX IMVI 11.4 µM | IGROV-1 8.75 µM | NCI-H522 6.24 µM | SW-620 5.83 µM | 786-0 7.96 µM | EKVX 18.5 µM | MDA-N 7.89 µM | SF-295 3.73 µM | A549 5.53 µM | CAKI-1 3.72 µM | SK-OV-3 70 µM | Malme-3M 15.4 µM | OVCAR-3 5.35 µM | U-251 4.01 µM | HCT-116 3.83 µM | MOLT-4 2.9 µM | SK-MEL-5 13.6 µM | MDA-MB-231 16.7 µM | SK-MEL-28 16.3 µM | UACC-257 4.46 µM | SF-539 17.7 µM | SNB-19 53.3 µM | HL-60 3.22 µM
2.96 µM: HCT-15

Source: ChEMBL document CHEMBL1201862, “PubChem BioAssay data set” (2004)
